What all share (format): cell-based
The target in one assay is VR1/TRPV1 receptor (Homo sapiens (Human), UniProt Q8NER1). In words: Inhibition of human VR1/TRPV1 following pH-stimulus. Particulars: for IC50 (Human) following pH-stimulus: ne = no effect, no reaction observed.
The target in the next assay is vanilloid receptor (VR1) (Homo sapiens (Human), UniProt Q8NER1). Kind of assay: FLIPR Ca2+ influx assay on CHO-K1 cells transfected with the human VR1 gene, capsaicin stimulus (Pharmacological Method II). As for the experimental part: Furthermore, preference may be given to compounds of the invention of the general formulas I, Ia, Ib and Ic, which in the FLIPR assay using CHO—K1 cells, which have been transfected with the human VR1 gene in a concentration below 2000 nM, preferably below 1000 nM, more preferably below 300 nM, even more preferably below 100 nM, still more preferably below 75 nM, very preferably below 50 nM and most preferably below 10 nM, cause a 50 percent displacement of capsaicin present in a concentration of 100 nM. In the FLIPR assay, the Ca^2+ influx is quantified with the aid of a Ca^2+-sensitive dye (type Fluo-4, Molecular Probes Europe BV, Leiden, Netherlands) in a fluorescent imaging plate reader (FLIPR, Molecular Devices, Sunnyvale, USA), as described below.
II. Functional Investigations on the Vanilloid Receptor (VR1)
The agonistic or antagonistic action of the substances to be examined on the vanilloid receptor (VR1) can alternatively be determined by the following assay. According to this assay the Ca^2+ influx through the canal is quantified with the aid of a Ca^2+-sensitive dye (type Fluo-4, Molecular Probes, Europe BV, Leiden, Netherlands) in a fluorescent imaging plate reader (FLIPR, Molecular Devices, Sunnyvale, USA).
Chinese hamster ovary cells (CHO—K1 cells, European Collection of Cell Cultures (ECACC) UK) are stably transfected with the VR1 gene. For carrying out functional investigations, these cells are plated on poly-D-lysine-coated, black 96-well plates with a clear bottom (BD Biosciences, Heidelberg, Germany) in a density of 25,000 cells/well. The cells are incubated overnight at 37° C. and 5% CO2 in a culture medium (Nutrient Mixture ‘am’s F12, 10% by volume of FCS (fetal calf serum), 18 μg/mL of L-proline). On the following day the cells are incubated with Fluo-4 (Fluo-4 2 μM, Pluronic F127 0.01 by volume, Molecular Probes in HBSS (Hank's buffered saline solution), Gibco Invitrogen GmbH, Karlsruhe, Germany) for 30 minutes at 37° C. The plates are then washed 3 times with HBSS buffer and, after another incubation over a period of 15 minutes at RT, are used in the FLIPR for Ca^2+ measurement. The Ca^2+-dependent fluorescence is measured prior to and following the addition of the substances being examined (wavelength λex=488 nm, λem=540 nm). Quantification is carried out by measuring the highest fluorescence intensity (PC, fluorescence counts) over time.
The FLIPR protocol consists of two substance additions. First of all, the substances to be tested (10 μM) are pipeted onto the cells and the Ca^2+ influx is compared with the control (capsaicin 10 μM) (percentage activation based on the Ca^2+ signal following addition of 10 μM of capsaicin). Following incubation over a period of 5 minutes 100 nM of capsaicin are applied and the influx of Ca^2+ is likewise determined.
Desensitizing agonists and antagonists lead to a suppression of the Ca^2+ influx. The percentage inhibition compared with the maximum inhibition achieved with 10 μM of capsaicin is calculated.
Based on the percentage displacement effected by different concentrations of the compounds of the general formula Ito be tested, IC50 inhibition concentrations that cause 50 percent displacement of capsaicin are calculated. Conversion using the Cheng Prusoff equation gave Ki values for the test substances (Cheng, Prusoff; Bioch. Pharmacol. 22, 3099-3108, 1973).
The affinity of the compounds of the invention for the vanilloid receptor 1 (VR1/TRPV1-Receptor) was detected as described above (Pharmacological Methods I and II respectively).

In assay [1] the target is vanilloid receptor 1 (VR1/TRPV1) (Rattus norvegicus (Rat), UniProt O35433). In words: FLIPR Ca2+ influx assay on rat dorsal root ganglia cells, capsaicin stimulus (Pharmacological Method I). An excerpt:
I. Functional Investigation on the Vanilloid Receptor 1 (VR1/TRPV1 Receptor)
The agonistic or antagonistic action of the substances to be investigated on the vanilloid receptor 1 (VR1/TRPV1) of the species rat can be determined using the following assay. According to this assay, the Ca^2+ influx through the receptor channel is quantified with the aid of a Ca^2+-sensitive dye (Type Fluo-4, Molecular Probes Europe BV, Leiden Netherlands) in a fluorescent imaging plate reader (FLIPR, Molecular Devices, Sunnyvale, USA).
Complete medium: 50 mL of HAMS F12 Nutrient Mixture (Gibco Invitrogen GmbH, Karlsruhe, Germany) with
10% by volume of FCS (fetal calf serum, Gibco Invitrogen GmbH, Karlsruhe, Germany, heat-inactivated);
2 mM of L-glutamine (Sigma, Munich, Germany);
1% by weight of AA solution (antibiotics/antimycotics solution, PAA, Pasching, Austria)
and 25 ng/mL of Medium NGF (2.5 S, Gibco Invitrogen GmbH, Karlsruhe, Germany) Cell culture plate: Poly-D-lysine-coated, black 96-well plates with a clear bottom (96-well black/clear plate, BD Biosciences, Heidelberg, Germany) are additionally coated with laminin (Gibco Invitrogen GmbH, Karlsruhe, Germany) by diluting laminin to a concentration of 100 μg/mL with PBS (Ca—Mg-free PBS, Gibco Invitrogen GmbH, Karlsruhe, Germany). Aliquots having a concentration of 100 μg/mL of laminin are taken and stored at −20° C. The aliquots are diluted with PBS in the ratio 1:10 to 10 μg/mL of laminin and in each case 50 μL of the solution is pipeted into a well of the cell culture plate. The cell culture plates are incubated at 37° C. for at least two hours, the supernatant solution is aspirated and the wells are in each case washed twice with PBS. The coated cell culture plates are stored with supernatant PBS and this is removed only directly before the addition of the cells.
Preparation of the Cells:
The vertebral column is removed from decapitated rats and this is laid directly in a cold, i.e. ice bath-surrounded, HBSS buffer (Hank's buffered saline solution, Gibco Invitrogen GmbH, Karlsruhe, Germany) and 1% by volume of an AA solution (antibiotics/antimycotics solution, PAA, Pasching, Austria) is added. The vertebral column is cut in two, longitudinally, and the vertebral canal is removed together with fascias. Subsequently, the dorsal root ganglia (DRGs) are removed and in turn stored in cold HBSS buffer to which 1% by volume of an AA solution has been added. The DRGs completely freed from blood residues and spinal nerves are in each case transferred to 500 μL of cold collagenase Type 2 (PAA, Pasching, Austria) and incubated at 37° C. for 35 minutes. After the addition of 2.5% by volume of trypsin (PAA, Pasching, Austria), the preparation is incubated at 37° C. for a further 10 minutes. On completion of incubation, the enzyme solution is carefully pipeted off and 500 μL of complete medium are added to the DRGs in each case. The DRGs are in each case repeatedly suspended, drawn through No. 1, No. 12, and No. 16 needles by means of a syringe and transferred to 50 mL Falcon tubes and these are filled to 15 mL with complete medium. The contents of each Falcon tube are in each case filtered through a 70 μm Falcon filter insert and centrifuged at 1200 rpm and RT for 10 minutes. The resulting pellet is in each case taken up in 250 μL of complete medium and the cell count is determined.
The number of cells in the suspension is adjusted to 3×10^5 per mL and in each case 150 μL of this suspension are added to a well of the cell culture plates coated as described above. The plates are allowed to stand at 37° C., 5% by volume of CO2 and 95% relative humidity for two to three days in an incubator. […]

Chain of vanilloid receptor 1 (VR1/TRPV1) (O35433 whole entry): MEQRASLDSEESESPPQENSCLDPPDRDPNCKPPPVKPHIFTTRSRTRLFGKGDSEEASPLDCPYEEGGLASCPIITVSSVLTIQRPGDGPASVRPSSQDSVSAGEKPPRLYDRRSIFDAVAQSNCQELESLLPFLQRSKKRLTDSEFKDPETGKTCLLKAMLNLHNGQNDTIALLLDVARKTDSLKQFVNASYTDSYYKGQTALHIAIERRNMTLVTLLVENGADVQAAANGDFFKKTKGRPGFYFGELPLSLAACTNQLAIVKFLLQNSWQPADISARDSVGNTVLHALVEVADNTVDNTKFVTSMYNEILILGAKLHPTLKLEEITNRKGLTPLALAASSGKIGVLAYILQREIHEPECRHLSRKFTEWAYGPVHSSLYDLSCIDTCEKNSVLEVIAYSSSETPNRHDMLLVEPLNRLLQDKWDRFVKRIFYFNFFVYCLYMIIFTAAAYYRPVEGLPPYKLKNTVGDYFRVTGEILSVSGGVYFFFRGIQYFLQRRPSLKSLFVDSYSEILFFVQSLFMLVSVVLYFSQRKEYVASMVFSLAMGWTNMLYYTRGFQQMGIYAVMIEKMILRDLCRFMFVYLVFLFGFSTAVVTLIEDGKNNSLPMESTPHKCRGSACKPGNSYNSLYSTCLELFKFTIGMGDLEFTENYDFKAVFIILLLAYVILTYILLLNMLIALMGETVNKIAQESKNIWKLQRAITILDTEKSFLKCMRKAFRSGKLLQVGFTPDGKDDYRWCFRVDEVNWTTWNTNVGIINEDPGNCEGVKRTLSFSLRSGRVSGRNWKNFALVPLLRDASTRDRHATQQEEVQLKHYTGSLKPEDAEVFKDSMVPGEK
Chain of VR1/TRPV1 receptor (Q8NER1 whole entry): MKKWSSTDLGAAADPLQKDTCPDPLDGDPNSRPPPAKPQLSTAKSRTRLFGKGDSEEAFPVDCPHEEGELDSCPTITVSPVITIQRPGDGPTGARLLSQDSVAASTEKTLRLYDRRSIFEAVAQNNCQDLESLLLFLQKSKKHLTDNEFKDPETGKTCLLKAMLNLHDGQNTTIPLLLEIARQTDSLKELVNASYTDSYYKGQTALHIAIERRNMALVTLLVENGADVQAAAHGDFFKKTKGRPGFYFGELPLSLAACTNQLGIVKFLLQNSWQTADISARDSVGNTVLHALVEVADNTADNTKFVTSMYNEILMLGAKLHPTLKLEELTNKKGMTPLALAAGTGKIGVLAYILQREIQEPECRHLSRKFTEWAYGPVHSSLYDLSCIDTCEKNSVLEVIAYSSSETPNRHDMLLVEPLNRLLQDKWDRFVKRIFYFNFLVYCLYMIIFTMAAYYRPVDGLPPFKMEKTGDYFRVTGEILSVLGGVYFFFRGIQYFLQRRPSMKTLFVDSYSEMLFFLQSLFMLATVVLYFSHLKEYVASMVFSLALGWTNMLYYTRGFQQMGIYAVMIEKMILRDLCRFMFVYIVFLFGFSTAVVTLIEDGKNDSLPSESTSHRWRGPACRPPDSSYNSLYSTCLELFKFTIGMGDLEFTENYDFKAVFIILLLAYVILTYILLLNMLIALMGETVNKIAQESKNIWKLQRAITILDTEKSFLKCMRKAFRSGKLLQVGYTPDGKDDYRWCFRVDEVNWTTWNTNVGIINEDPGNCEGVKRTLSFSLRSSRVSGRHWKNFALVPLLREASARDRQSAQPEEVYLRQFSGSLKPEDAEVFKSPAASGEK
Chain of vanilloid receptor (VR1) (Q8NER1 whole entry): as above

For the compound `CC1CCN(c2nc(C(F)(F)F)ccc2CNC(=O)Cc2cc(F)ccc2F)CC1` [Example 7, 2-(2,5-Difluorophenyl)-N-(4-methyl-6′-trifluoromethyl-3,4,5,6-tetrahydro-2H-[1,2′]bipyridinyl-3′-ylmethyl)acetamide], the “IC50 (Human) following pH-stimulus” value against VR1/TRPV1 receptor is “ne”. In addition, the Ki (in general, a dissociation constant, usually derived from enzyme kinetics or from competition with a known ligand) at vanilloid receptor (VR1) came out at 30 nM; in assay [1], 63 nM.
Consider `CC1CCN(c2nc(C(F)(F)F)ccc2CNC(=O)C(C)c2cc(O)c([N+](=O)[O-])c(F)c2)CC1` (centres unmarked) [Example 27, 2-(3-Fluoro-5-hydroxy-4-nitrophenyl)-N-((2-(4-methylpiperidin-1-yl)-6-(trifluoromethyl)pyridin-3-yl)methyl)propanamide], for which, on VR1/TRPV1 receptor (@ 1 μM, read-out: inhibition (in percent) following pH-stimulus (Human)), the inhibition (usually the percentage by which the read-out fell short of the control) at 1 µM worked out at 7%. In addition, the inhibition at 5 µM at VR1/TRPV1 receptor (@ 5 μM, read-out: inhibition (in percent) following pH-stimulus (Human)) was found to be 35%. Moreover, the inhibition at 10 µM on VR1/TRPV1 receptor (@ 10 μM, read-out: inhibition (in percent) following pH-stimulus (Human)) is 49%. Moreover, the Ki was determined as 7.9 nM at vanilloid receptor (VR1) and 7.7 nM in assay [1].
With `CC1CCN(c2nc(C(F)(F)F)ccc2CNC(=O)Cc2cccc(F)c2)CC1` [Example 4, 2-(3-Fluorophenyl)-N-(4-methyl-6′-trifluoromethyl-3,4,5,6-tetrahydro-2H-[1,2′]bipyridinyl-3′-ylmethyl)acetamide], on VR1/TRPV1 receptor, the “IC50 (Human) following pH-stimulus” value was “ne”. The Ki on vanilloid receptor (VR1) was determined as 34 nM; in assay [1], 80 nM.

Values taken from US8791268B2, “Vanilloid receptor ligands, pharmaceutical compositions containing them, process for making them, and use thereof for treating pain and other conditions” (Gruenenthal GmbH, priority 2007, dated 2014).
